{"source": "patent US8772321B2", "about": "“Heteroannelated anthraquinone derivatives for inhibiting cancers” (National Defense Medical Center, priority 2008, dated 2014)", "key": {"[1]": {"system": "NCI's 60 human cancer cell lines", "test": "NCI 60-cell panel dose-response, whole panel", "assay_type": "cell-based"}, "SAS cells": {"system": "SAS cells", "test": "SAS tumor xenograft in mouse", "assay_type": "in vivo", "conditions": "2 mg/kg/day, 10 days", "experimental": "Furthermore, we tested the effects of NSC745885 on tumor size in mouse. This experiment had two animal groups: one is administered after tumor xenograft transplantation with PBS (Control, FIG. 13, Panel A) and the other with NSC745885 (2 mg/kg/day, FIG. 13, Panel B). The mice were euthanized after 10 days and the tumor tissues were immediately isolated. […] (FIG. 13, Panel C)."}, "SK-MEL-2": {"system": "SK-MEL-2", "test": "NCI 60-cell one dose screen", "assay_type": "cell-based, human", "conditions": "SK-MEL-2 (Melanoma); 10^−5M", "experimental": "(§1) NSC745885 was studied as a prototype for anti-proliferative activity against human cancer cell lines in NCI Drug Screen Program (Table 1, below). NSC745885 was evaluated in the full panel of human tumor cell lines derived from nine cancer cell types (leukemia, non-small cell lung cancer, colon cancer, CNS cancer, prostate cancer, melanoma, ovarian cancer, renal cancer and breast cancer). Each subpanel uses several cell lines and dose-response curves were drawn against the decadic logarithm (log 10) of the corresponding drug concentrations for each cell line by the subpanel group. They were also evaluated in the 60 cell line panel and anticancer assay was performed in accordance with the protocol of developmental therapeutics program (one dose mean graph). Results for each compound were reported as the proliferation percentage of the treated cells with that of the untreated control cells being 100. For each of these parameters the averaged values of mean graph midpoint (MG_MID) were calculated."}, "OVCAR-5": {"system": "OVCAR-5", "test": "NCI 60-cell one dose screen", "assay_type": "cell-based, human", "conditions": "OVCAR-5 (Ovarian cancer); 10^−5M", "experimental": "as §1"}, "IGROV1": {"system": "IGROV1", "test": "NCI 60-cell one dose screen", "assay_type": "cell-based, human", "conditions": "IGROV1 (Ovarian cancer); 10^−5M", "experimental": "as §1"}, "T-47D": {"system": "T-47D", "test": "NCI 60-cell one dose screen", "assay_type": "cell-based, human", "conditions": "T-47D (Breast cancer); 10^−5M", "experimental": "as §1"}, "UO-31": {"system": "UO-31", "test": "NCI 60-cell one dose screen", "assay_type": "cell-based, human", "conditions": "UO-31 (Renal cancer); 10^−5M", "experimental": "as §1"}, "COLO 205": {"system": "COLO 205", "test": "NCI 60-cell one dose screen", "assay_type": "cell-based, human", "conditions": "COLO 205 (Colon cancer); 10^−5M", "experimental": "as §1"}, "K-562": {"system": "K-562", "test": "NCI 60-cell one dose screen", "assay_type": "cell-based, human", "conditions": "K-562 (Leukemia); 10^−5M", "experimental": "as §1"}, "OVCAR-4": {"system": "OVCAR-4", "test": "NCI 60-cell one dose screen", "assay_type": "cell-based, human", "conditions": "OVCAR-4 (Ovarian cancer); 10^−5M", "experimental": "as §1"}, "MDA-MB-231/ATCC": {"system": "MDA-MB-231/ATCC", "test": "NCI 60-cell one dose screen", "assay_type": "cell-based, human", "conditions": "MDA-MB-231/ATCC (Breast cancer); 10^−5M", "experimental": "as §1"}, "SW-620": {"system": "SW-620", "test": "NCI 60-cell one dose screen", "assay_type": "cell-based, human", "conditions": "SW-620 (Colon cancer); 10^−5M", "experimental": "as §1"}, "OVCAR-8": {"system": "OVCAR-8", "test": "NCI 60-cell one dose screen", "assay_type": "cell-based, human", "conditions": "OVCAR-8 (Ovarian cancer); 10^−5M", "experimental": "as §1"}, "A549/ATCC": {"system": "A549/ATCC", "test": "NCI 60-cell one dose screen", "assay_type": "cell-based, human", "conditions": "A549/ATCC (Non-small cell lung cancer); 10^−5M; untreated control 100", "experimental": "as §1"}, "CAK1-1": {"system": "CAK1-1", "test": "NCI 60-cell one dose screen", "assay_type": "cell-based, human", "conditions": "CAK1-1 (Renal cancer); 10^−5M", "experimental": "as §1"}, "TK-10": {"system": "TK-10", "test": "NCI 60-cell one dose screen", "assay_type": "cell-based, human", "conditions": "TK-10 (Renal cancer); 10^−5M", "experimental": "as §1"}, "HL-60(TB)": {"system": "HL-60(TB)", "test": "NCI 60-cell one dose screen", "assay_type": "cell-based, human", "conditions": "HL-60(TB) (Leukemia); 10^−5M", "experimental": "as §1"}, "MCF7": {"system": "MCF7", "test": "NCI 60-cell one dose screen", "assay_type": "cell-based, human", "conditions": "MCF7 (Breast cancer); 10^−5M", "experimental": "as §1"}, "KM12": {"system": "KM12", "test": "NCI 60-cell one dose screen", "assay_type": "cell-based, human", "conditions": "KM12 (Colon cancer); 10^−5M", "experimental": "as §1"}, "HeLa cells": {"system": "HeLa cells", "test": "Apoptosis: cleaved PARP and caspase 3 immunoblot, DNA fragmentation gel", "assay_type": "cell-based, human", "conditions": "16 hours", "experimental": "It is well noted that DXR can induce cardiomyocyte death by apoptosis and necrosis. DXR is also involved in other types of cellular processes, such as autophagy and senescence/aging. To investigate induction of apoptosis caused by NSC745885, we adopted DXR as a positive control and examined the levels of cleaved PARP and caspase 3 as apoptotic indicators using immunoblot (FIG. 4A), as well as DNA fragmentation using agarose gel electrophoresis (FIG. 4B). HeLa cells were treated with either DXR or NSC745885 at various doses for 16 hours. Subsequently, the total cellular protein was extracted and immunoblotted with antibodies against the cleaved types of PARP and caspase 3. Additionally, genomic DNA was isolated and analyzed by 2% agarose gel electrophoresis followed by ethidium bromide staining. The results (FIG. 4A and FIG. 4B) are representative of three independent experiments. […] Treatment with NSC745885 decreased protein stability, an effect that appeared to be selective, and was confirmed in other immunoblot analyses (shown in FIG. 6A, lanes 1 and 6).\nCell lysates were prepared in lysis buffer (100 mM Tris-HCl pH 8.0, 150 mM NaCl, 0.1% SDS, and 1% Triton 100) at 4° C., separated by sodium dodecyl sulfate-polyacrylamide gel electrophoresis (SDS-PAGE), and then transferred onto a polyvinylidine difluoride membrane (Millipore, USA). Proteins were detected using antibodies against alpha actinin (ACTN), proliferating cell nuclear antigen (PCNA), p53, p21, cyclin B1, and cyclin D1 (Santa Cruz Biotechnology, USA), YH2A.X (EP854(2)Y, Epitomics, USA), cleaved caspase 3, cleaved poly(ADP-ribose) polymerase (PARP) and LC3B-II (Cell signaling, USA)."}}, "note": "Where two headings read alike, the source gives them in different places."}
{"smiles": "O=C1c2ccccc2C(=O)c2c1ccc1nsnc21", "note": "[NSC745885, anthra[2,1-c][1,2,5]thiadiazole-6,11-dione]", "values": [{"measurement": "GI50", "setting": "[1]; Homo sapiens, 60 cell, all cell lines of the panel, read-out: GI50, span over the 60-cell panel", "value": "0.16 to 17.4", "unit": "µM"}, {"measurement": "CC50", "setting": "[1]; Homo sapiens, 60 cell, as low as, over the panel, read-out: LC50, lowest in the 60-cell panel", "value": "≥ 0.99", "unit": "µM"}, {"measurement": "GI50", "setting": "[1]; Homo sapiens, 60 cell, mean of the panel, read-out: GI50, mean over the 60-cell panel", "value": 2.04, "unit": "µM"}, {"measurement": "TGI, lowest in the 60-cell panel", "setting": "[1]; as low as, over the panel", "value": "≥ 0.40", "unit": "µM"}, {"measurement": "body weight", "setting": "SAS cells", "value": "not significantly decreased"}, {"measurement": "tumor size", "setting": "SAS cells; versus PBS control", "value": "reduced"}, {"measurement": "proliferation percentage", "setting": "SK-MEL-2", "value": "−73.16", "unit": "%"}, {"measurement": "proliferation percentage", "setting": "OVCAR-5", "value": "−20.07", "unit": "%"}, {"measurement": "proliferation percentage", "setting": "IGROV1", "value": "−88.34", "unit": "%"}, {"measurement": "proliferation percentage", "setting": "T-47D", "value": "−45.52", "unit": "%"}, {"measurement": "proliferation percentage", "setting": "UO-31", "value": "−79.30", "unit": "%"}, {"measurement": "proliferation percentage", "setting": "COLO 205", "value": 111.54, "unit": "%"}, {"measurement": "proliferation percentage", "setting": "K-562", "value": 49.61, "unit": "%"}, {"measurement": "proliferation percentage", "setting": "OVCAR-4", "value": "−94.43", "unit": "%"}, {"measurement": "proliferation percentage", "setting": "MDA-MB-231/ATCC", "value": "−17.33", "unit": "%"}, {"measurement": "proliferation percentage", "setting": "SW-620", "value": 7.30, "unit": "%"}, {"measurement": "proliferation percentage", "setting": "OVCAR-8", "value": "−10.07", "unit": "%"}, {"measurement": "proliferation percentage", "setting": "A549/ATCC", "value": 104.18, "unit": "%"}, {"measurement": "proliferation percentage", "setting": "CAK1-1", "value": 1.97, "unit": "%"}, {"measurement": "proliferation percentage", "setting": "TK-10", "value": 96.99, "unit": "%"}, {"measurement": "proliferation percentage", "setting": "HL-60(TB)", "value": "−21.77", "unit": "%"}, {"measurement": "proliferation percentage", "setting": "MCF7", "value": "−50.74", "unit": "%"}, {"measurement": "proliferation percentage", "setting": "KM12", "value": 98.60, "unit": "%"}, {"measurement": "protein levels of cleaved PARP and caspase 3 at high concentration", "setting": "HeLa cells; 25 μM, compared to DXR", "value": "dramatically decreased"}, {"measurement": "induction of apoptosis (cleaved PARP, caspase 3, DNA fragmentation)", "setting": "HeLa cells; various doses", "value": "comparable effect"}]}
